The structures appear in SMILES notation. A value given as a limit tells only on which side of the number the result lay.

The IC50 is the concentration that gives 50% inhibition. Low readings indicate inhibition by little substance, high ones a need for much substance.

The test addresses T1, SYK kinase (Homo sapiens, UniProt P43405).
T1 construct: purchased Invitrogen, Carlsbad
Nature of the test: SYK assay (OMNIA Kinase Assay, Invitrogen). Type of test: biochemical. The following applies: SYK Activities; 1 mM ATP, 10 μM Omnia Peptide Substrate Tyr 7, 30° C. In outline: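 Continuous-read fluorescence kinase assay: SOX-labelled Tyr 7 peptide (10 μM) with 1 mM ATP and 0.2 mM DTT, 30° C, reaction started by adding SYK. Fluorescence (ex 360/em 485 nm) read every 30 s for 30 min. IC50 from sigmoidal fit of reaction velocity versus inhibitor concentration.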
`CC(=O)N1CCN(c2ccc(Nc3nc(C4CCC4)nc4cn[nH]c34)cc2)CC1` [Example 192, 1-(4-(4-((5-cyclobutyl-1H-pyrazolo[4,3-d]pyrimidin-7-yl)amino)phenyl)piperazin-1-yl)ethan-1-one] showed an IC50 of less than 10 nM.

`O=C(c1ccc(Nc2nc(C3CCC3)nc3cn[nH]c23)cc1F)N1CCOCC1` [Example 193, (4-((5-cyclobutyl-1H-pyrazolo[4,3-d]pyrimidin-7-yl)amino)-2-fluorophenyl)(morpholino)methanone] yielded a concentration for half-maximal inhibition (IC50) of 100 to 1000 nM.

Compound `COCCn1cc(Nc2nc(C3CC3)nc3cn[nH]c23)cn1` [Example 194, 5-cyclopropyl-N-(1-(2-methoxyethyl)-1H-pyrazol-4-yl)-1H-pyrazolo[4,3-d]pyrimidin-7-amine] showed an IC50 of 100 to 1000 nM.

The compound `COCCn1cc(Nc2nc(-c3ccco3)nc3cn[nH]c23)cn1` [Example 195, 5-(furan-2-yl)-N-(1-(2-methoxyethyl)-1H-pyrazol-4-yl)-1H-pyrazolo[4,3-d]pyrimidin-7-amine] returned an IC50 of 10 to 100 nM.

Compound `CC(=O)N1CCC(n2cc(Nc3nc(-c4ccco4)nc4cn[nH]c34)cn2)CC1` [Example 196, 1-(4-(4-((5-(furan-2-yl)-1H-pyrazolo[4,3-d]pyrimidin-7-yl)amino)-1H-pyrazol-1-yl)piperidin-1-yl)ethan-1-one] displayed an IC50 of less than 10 nM.

Turning to `O=C(c1ccc(Nc2nc(-c3ccco3)nc3cn[nH]c23)cc1F)N1CCOCC1` [Example 197, (2-fluoro-4-((5-(furan-2-yl)-1H-pyrazolo[4,3-d]pyrimidin-7-yl)amino)phenyl)(morpholino)methanone], the half-inhibitory concentration (IC50) fell in the range of 100 to 1000 nM.

As to `CN1CCC(n2cc(Nc3nc(-c4ccco4)nc4cn[nH]c34)cn2)CC1` [Example 198, 5-(furan-2-yl)-N-(1-(1-methylpiperidin-4-yl)-1H-pyrazol-4-yl)-1H-pyrazolo[4,3-d]pyrimidin-7-amine], the IC50 was less than 10 nM.

For the compound `COCCn1cc(Nc2nc(-c3ccoc3)nc3cn[nH]c23)cn1` [Example 199, 5-(furan-3-yl)-N-(1-(2-methoxyethyl)-1H-pyrazol-4-yl)-1H-pyrazolo[4,3-d]pyrimidin-7-amine], the IC50 lay in the range of 100 to 1000 nM.

For `CC(=O)N1CCC(n2cc(Nc3nc(-c4ccoc4)nc4cn[nH]c34)cn2)CC1` [Example 200, 1-(4-(4-((5-(furan-3-yl)-1H-pyrazolo[4,3-d]pyrimidin-7-yl)amino)-1H-pyrazol-1-yl)piperidin-1-yl)ethan-1-one], the IC50 is less than 10 nM.

Regarding `O=C(c1ccc(Nc2nc(-c3ccoc3)nc3cn[nH]c23)cc1F)N1CCOCC1` [Example 201, (2-fluoro-4-((5-(furan-3-yl)-1H-pyrazolo[4,3-d]pyrimidin-7-yl)amino)phenyl)(morpholino)methanone], the IC50 lay in the range of 100 to 1000 nM.

For the compound `CN1CCC(n2cc(Nc3nc(-c4ccoc4)nc4cn[nH]c34)cn2)CC1` [Example 202, 5-(furan-3-yl)-N-(1-(1-methylpiperidin-4-yl)-1H-pyrazol-4-yl)-1H-pyrazolo[4,3-d]pyrimidin-7-amine], the 50% inhibitory concentration (IC50) was less than 10 nM.

Regarding `CC(C)(C#N)n1cc(Nc2nc(-c3ccoc3)nc3cn[nH]c23)cn1` [Example 203, 2-(4-((5-(furan-3-yl)-1H-pyrazolo[4,3-d]pyrimidin-7-yl)amino)-1H-pyrazol-1-yl)-2-methylpropanenitrile], the IC50 lay within 100 to 1000 nM.

In the case of `CC(=O)N1CCC(n2cc(Nc3nc(C4CC4)nc4cn[nH]c34)cn2)CC1` [Example 204, 1-(4-(4-((5-cyclopropyl-1H-pyrazolo[4,3-d]pyrimidin-7-yl)amino)-1H-pyrazol-1-yl)piperidin-1-yl)ethan-1-one], the IC50 is less than 10 nM.

The compound `CC(=O)N1CCC(n2cc(Nc3nc(C4CCC4)nc4cn[nH]c34)cn2)CC1` [Example 205, 1-(4-(4-((5-cyclobutyl-1H-pyrazolo[4,3-d]pyrimidin-7-yl)amino)-1H-pyrazol-1-yl)piperidin-1-yl)ethan-1-one] gave a 50% inhibitory concentration (IC50) of 10 to 100 nM.

In turn, `CN1CCC(n2cc(Nc3nc(C4CCC4)nc4cn[nH]c34)cn2)CC1` [Example 206, 5-cyclobutyl-N-(1-(1-methylpiperidin-4-yl)-1H-pyrazol-4-yl)-1H-pyrazolo[4,3-d]pyrimidin-7-amine] displayed an IC50 of less than 10 nM.

`CN1CCC(n2cc(Nc3nc(C4CC4)nc4cn[nH]c34)cn2)CC1` [Example 207, 5-cyclopropyl-N-(1-(1-methylpiperidin-4-yl)-1H-pyrazol-4-yl)-1H-pyrazolo[4,3-d]pyrimidin-7-amine]: the IC50 was 10 to 100 nM.

As for `O=C(c1ccc(Nc2nc(C3CC3)nc3cn[nH]c23)cc1F)N1CCOCC1` [Example 208, (4-((5-cyclopropyl-1H-pyrazolo[4,3-d]pyrimidin-7-yl)amino)-2-fluorophenyl)(morpholino)methanone], the half-inhibitory concentration (IC50) lay within 100 to 1000 nM.

As for `CC(C)(C#N)n1cc(Nc2nc(-c3ccco3)nc3cn[nH]c23)cn1` [Example 211, 2-(4-((5-(furan-2-yl)-1H-pyrazolo[4,3-d]pyrimidin-7-yl)amino)-1H-pyrazol-1-yl)-2-methylpropanenitrile], the IC50 lay within 100 to 1000 nM.

Take `CC(C)(C)n1cc(Nc2nc(-c3ccco3)nc3cn[nH]c23)cn1` [Example 212, N-(1-(tert-butyl)-1H-pyrazol-4-yl)-5-(furan-2-yl)-1H-pyrazolo[4,3-d]pyrimidin-7-amine]: the IC50 lay in the range of 10 to 100 nM.

With `N#CC1(n2cc(Nc3nc(-c4ccco4)nc4cn[nH]c34)cn2)CCCCC1` [Example 213, 1-(4-((5-(furan-2-yl)-1H-pyrazolo[4,3-d]pyrimidin-7-yl)amino)-1H-pyrazol-1-yl)cyclohexanecarbonitrile], the 50% inhibitory concentration (IC50) was 100 to 1000 nM.

In turn, `CC(C)n1cc(Nc2nc(-c3ccco3)nc3cn[nH]c23)cn1` [Example 214, 5-(furan-2-yl)-N-(1-isopropyl-1H-pyrazol-4-yl)-1H-pyrazolo[4,3-d]pyrimidin-7-amine] displayed a 50% inhibitory concentration (IC50) of less than 10 nM.

For the compound `COCCCn1cc(Nc2nc(-c3ccco3)nc3cn[nH]c23)cn1` [Example 215, 5-(furan-2-yl)-N-(1-(3-methoxypropyl)-1H-pyrazol-4-yl)-1H-pyrazolo[4,3-d]pyrimidin-7-amine], the IC50 is less than 10 nM.

On to `COC(=O)c1cccc(-c2nc(Nc3cnn(C4CCOCC4)c3)c3[nH]ncc3n2)c1` [Example 216, methyl 3-(7-((1-(tetrahydro-2H-pyran-4-yl)-1H-pyrazol-4-yl)amino)-1H-pyrazolo[4,3-d]pyrimidin-5-yl)benzoate], for which the IC50 was in the range of 10 to 100 nM.

`O=C(O)c1cccc(-c2nc(Nc3cnn(C4CCOCC4)c3)c3[nH]ncc3n2)c1` [Example 217, 3-(7-((1-(tetrahydro-2H-pyran-4-yl)-1H-pyrazol-4-yl)amino)-1H-pyrazolo[4,3-d]pyrimidin-5-yl)benzoic acid] registered a half-inhibitory concentration (IC50) of 100 to 1000 nM.

`CC(C)(C)n1cc(Nc2nc(-c3ccoc3)nc3cn[nH]c23)cn1` [Example 218, N-(1-(tert-butyl)-1H-pyrazol-4-yl)-5-(furan-3-yl)-1H-pyrazolo[4,3-d]pyrimidin-7-amine] came in with a concentration for half-maximal inhibition (IC50) of 10 to 100 nM.

`N#CC1(n2cc(Nc3nc(-c4ccoc4)nc4cn[nH]c34)cn2)CCCCC1` [Example 219, 1-(4-((5-(furan-3-yl)-1H-pyrazolo[4,3-d]pyrimidin-7-yl)amino)-1H-pyrazol-1-yl)cyclohexanecarbonitrile] had a concentration for half-maximal inhibition (IC50) of 100 to 1000 nM.

With `CC(C)n1cc(Nc2nc(-c3ccoc3)nc3cn[nH]c23)cn1` [Example 220, 5-(furan-3-yl)-N-(1-isopropyl-1H-pyrazol-4-yl)-1H-pyrazolo[4,3-d]pyrimidin-7-amine], the IC50 is less than 10 nM.

`COCCCn1cc(Nc2nc(-c3ccoc3)nc3cn[nH]c23)cn1` [Example 221, 5-(furan-3-yl)-N-(1-(3-methoxypropyl)-1H-pyrazol-4-yl)-1H-pyrazolo[4,3-d]pyrimidin-7-amine] gave an IC50 of less than 10 nM.

Turning to `CC(C)(C)n1cc(Nc2nc(C3CCC3)nc3cn[nH]c23)cn1` [Example 222, N-(1-(tert-butyl)-1H-pyrazol-4-yl)-5-cyclobutyl-1H-pyrazolo[4,3-d]pyrimidin-7-amine], the IC50 lay in the range of 10 to 100 nM.

`CC(C)n1cc(Nc2nc(C3CCC3)nc3cn[nH]c23)cn1` [Example 223, 5-cyclobutyl-N-(1-isopropyl-1H-pyrazol-4-yl)-1H-pyrazolo[4,3-d]pyrimidin-7-amine] displayed a half-inhibitory concentration (IC50) of less than 10 nM.

Take `COCCCn1cc(Nc2nc(C3CCC3)nc3cn[nH]c23)cn1` [Example 224, 5-cyclobutyl-N-(1-(3-methoxypropyl)-1H-pyrazol-4-yl)-1H-pyrazolo[4,3-d]pyrimidin-7-amine]: the IC50 lay in the range of 10 to 100 nM.

In turn, `CC(C)(C#N)n1cc(Nc2nc(C3CCC3)nc3cn[nH]c23)cn1` [Example 225, 2-(4-((5-cyclobutyl-1H-pyrazolo[4,3-d]pyrimidin-7-yl)amino)-1H-pyrazol-1-yl)-2-methylpropanenitrile] displayed a half-maximal inhibitory concentration (IC50) of 100 to 1000 nM.

Compound `COCCn1ccc(Nc2nc(C3CCC3)nc3cn[nH]c23)cc1=O` [Example 226, 4-((5-cyclobutyl-1H-pyrazolo[4,3-d]pyrimidin-7-yl)amino)-1-(2-methoxyethyl)pyridin-2(1H)-one] returned an IC50 of 100 to 1000 nM.

As for `CC(C)(C)n1cc(Nc2nc(C3CC3)nc3cn[nH]c23)cn1` [Example 228, N-(1-(tert-butyl)-1H-pyrazol-4-yl)-5-cyclopropyl-1H-pyrazolo[4,3-d]pyrimidin-7-amine], the IC50 lay within 10 to 100 nM.

For the compound `CC(C)n1cc(Nc2nc(C3CC3)nc3cn[nH]c23)cn1` [Example 229, 5-cyclopropyl-N-(1-isopropyl-1H-pyrazol-4-yl)-1H-pyrazolo[4,3-d]pyrimidin-7-amine], the IC50 was less than 10 nM.

The compound `COCCCn1cc(Nc2nc(C3CC3)nc3cn[nH]c23)cn1` [Example 230, 5-cyclopropyl-N-(1-(3-methoxypropyl)-1H-pyrazol-4-yl)-1H-pyrazolo[4,3-d]pyrimidin-7-amine] displayed a half-inhibitory concentration (IC50) of 10 to 100 nM.

In the case of `COCCn1ccc(Nc2nc(C3CC3)nc3cn[nH]c23)cc1=O` [Example 231, 4-((5-cyclopropyl-1H-pyrazolo[4,3-d]pyrimidin-7-yl)amino)-1-(2-methoxyethyl)pyridin-2(1H)-one], the 50% inhibitory concentration (IC50) was 100 to 1000 nM.

For the origin of these results see patent US9637491B2, “Pyrazolo[4,3-D]pyrimidines as kinase inhibitors” (Origenis GmbH, priority 2012, dated 2017).
